Like-named read-outs stand apart in the source and are kept apart here.
Assays:
[1] = molecular target: human MLKL (full length) (Homo sapiens (Human), UniProt Q8NB16); experiment: KINOMEscan binding assay, human MLKL (full length)
Procedure, shortened: (§1)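 Tagged kinase + immobilized ligand beads + compound; eluted kinase quantified by qPCR. Kinase source: T7 phage lysate (BL21-derived E. coli, 32 °C) or HEK-293 with DNA tag. 11-pt 3-fold series, 1% DMSO, top 30,000 nM (most). Hill fit, slope −1 → Kd.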

[2] = system: Immortalised Mouse Dermal Fibroblasts (MDFs); experiment: Cellular assay: inhibition of TSI induced necroptosis, CellTitre-Glo viability; conditions: Mus musculus, Fibroblast, MDF, 3 hours TSI cocktail, read-out: Inhibition of TSI-induced necroptosis (IC50 cell-based assay) in MDF
Description: Cellular Assay: Screening Compounds for Inhibition of TSI Induced Necroptosis in, 384 Well Plate Format.
• Cell Line ID: Immortalised Mouse Dermal Fibroblasts (MDFs). • Cell Concentration (cells/well): Final cell density is 2200 cells per well. • Cell growth medium: DMEM medium+7.4% Fetal Bovine Serum (FBS). Cells are cultured in Corning 150 cm^2 tissue culture flasks with vented caps at 37° C./10% CO2. • Incubation: Plates were incubated for 30 minutes following addition of compounds and then 3 hours incubation with death stimuli (TSI cocktail) at 37° C./10% CO2 in a humidified incubator. • Compound concentration: 36 μM starting concentration, 1:3 dilution, 10 point • DMSO final concentration (% v/v): 0.3%. Compounds in TSI Cocktail (T: TNF; S: Smac Mimetic; I: IDN-6556) and their Final Concentrations: • rhTNF (100 ng/ml) • Compound a (500 nM)—Smac Mimetic, Tetralogic and SYNthesis Med Chem • IDN-6556 (10 μM)—Selleckchem (S7775)
The cellular assay was carried out according to the following steps: • 1. Each well was prepared by sequential addition of: • a. 40 μL of cell suspension (5.5×10^4 cells/mL) was added to each well to provide a final cell concentration of 2,200 cells per well. • b. After 24 hours, DMSO (control; columns 1-2 and 23-24) or compound in DMSO—addition was performed using acoustic transfer of nL volumes of stock compound to give final test concentrations of 36, 12, 4, 1.3, 0.44, 0.148, 0.049, 0.016, 0.005 and 0.002 μM. All wells were backfilled with DMSO to a final total volume in the well of 100 nL. • c. Following compound/DMSO addition in step (b), Plates were incubated for 30 minutes at 37° C./10% CO2 in a humidified incubator and then 10 μL of 5×TSI cocktail (except to positive controls; columns 2 and 24) was added to each well. • 2. After 3 hours, plate was removed from the 37° C. incubator and equilibrated to room temperature for 15 minutes. • 3. 15 μL of room temperatured CellTitre-Glo2™ (Promega™) was added to each well. • 4. Shook plates for 2 minutes (˜600 rpm) and incubated at room temperature for 15 minutes to allow signal to stabilise. • 5. Read luminescence readout on a plate reader.
Percent viability was calculated for each compound according to equation (2):
[formula] • Wherein RawData is the readout of any cell containing a compound of the invention.
TA is the total activity provided by the luminescence readout from DMSO only wells (columns 2 and 24)=100% viability.
NSA is the non-specific activity provided by DMSO+TSI wells (columns 1 and 23)=0% viability • Curve fitting: 10-point titration curves are fitted with the 4-parameter logistic nonlinear regression model and the IC50 reported is the inflection point of the curve • Analysis: Data was loaded into Dotmatics™ and visualised using the Tibco@ • Spotfire™ software. 10 point titration curves were fitted with the 4 parameter logistic nonlinear regression model and the IC50 reported reflect the inflection point of the curve for curve fitting.
Assay involving the TSI cocktail (T: TNF; S: Smac mimetic; I: IDN-6556): TSI treatment ensures that cells specifically undergo necroptotic cell death. TNF activates the TNF receptor, Smac mimetic directs the signal away from proinflammatory signaling and toward the RIPK1/RIPK3-mediated cell death pathways, and IDN-6556 (Caspase inhibitor) ensures that the apoptotic response is blocked leaving only the programmed necrosis response. The compounds' activity (solution in DMSO) tested in this TSI-induced assay was evaluated by determining the number of viable cells in culture by measuring the amount of ATP present as measured by CelltiterGlo.

[3] = molecular target: human RIPK1 (Homo sapiens (Human), UniProt Q13546); experiment: KINOMEscan binding assay, human RIPK1; conditions: Table 21
Sequence of human RIPK1 (Q13546 whole entry): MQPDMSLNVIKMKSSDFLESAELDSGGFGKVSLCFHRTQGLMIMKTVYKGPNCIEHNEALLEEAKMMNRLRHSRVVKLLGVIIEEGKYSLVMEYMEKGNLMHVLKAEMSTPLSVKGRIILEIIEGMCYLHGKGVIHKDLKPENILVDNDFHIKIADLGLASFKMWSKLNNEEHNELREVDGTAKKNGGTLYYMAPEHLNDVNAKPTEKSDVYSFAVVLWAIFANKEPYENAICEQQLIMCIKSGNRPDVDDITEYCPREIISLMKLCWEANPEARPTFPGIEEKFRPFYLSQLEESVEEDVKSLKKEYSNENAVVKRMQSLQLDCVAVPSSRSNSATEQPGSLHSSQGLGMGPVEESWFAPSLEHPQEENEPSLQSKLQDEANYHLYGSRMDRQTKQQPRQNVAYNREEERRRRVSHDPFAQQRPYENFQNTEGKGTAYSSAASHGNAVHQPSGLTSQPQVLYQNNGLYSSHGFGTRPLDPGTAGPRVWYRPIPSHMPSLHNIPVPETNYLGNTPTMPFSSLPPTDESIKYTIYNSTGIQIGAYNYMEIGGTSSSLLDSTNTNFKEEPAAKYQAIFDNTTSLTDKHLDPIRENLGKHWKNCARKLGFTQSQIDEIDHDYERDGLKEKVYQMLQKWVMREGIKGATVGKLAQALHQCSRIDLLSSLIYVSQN
Procedure, shortened: as §1

[4] = molecular target: human RIPK3 (Homo sapiens (Human), UniProt Q9Y572); experiment: KINOMEscan binding assay, human RIPK3; conditions: Table 21
Sequence of human RIPK3 (Q9Y572 whole entry): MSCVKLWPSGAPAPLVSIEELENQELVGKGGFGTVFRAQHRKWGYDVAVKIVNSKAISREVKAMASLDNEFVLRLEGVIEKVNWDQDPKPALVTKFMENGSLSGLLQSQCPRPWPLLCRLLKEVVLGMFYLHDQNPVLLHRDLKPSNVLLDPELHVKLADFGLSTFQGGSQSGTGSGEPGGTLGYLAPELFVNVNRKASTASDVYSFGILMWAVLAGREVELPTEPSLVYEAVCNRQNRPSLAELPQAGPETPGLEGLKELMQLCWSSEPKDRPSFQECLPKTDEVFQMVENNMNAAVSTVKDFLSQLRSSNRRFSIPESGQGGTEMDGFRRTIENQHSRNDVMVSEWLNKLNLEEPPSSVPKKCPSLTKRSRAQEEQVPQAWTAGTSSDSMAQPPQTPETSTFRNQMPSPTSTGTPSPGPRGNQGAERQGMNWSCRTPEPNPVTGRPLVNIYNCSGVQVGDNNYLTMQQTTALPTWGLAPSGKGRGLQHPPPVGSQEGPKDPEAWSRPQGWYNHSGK
Procedure, shortened: as §1

[5] = hMLKL, Table 25, read-out: MLKL (KD)
[6] = KINOMEscan, Table 21, read-out: Human MLKL (full-length) (KD)

Sequence of human MLKL (full length) (Q8NB16 whole entry): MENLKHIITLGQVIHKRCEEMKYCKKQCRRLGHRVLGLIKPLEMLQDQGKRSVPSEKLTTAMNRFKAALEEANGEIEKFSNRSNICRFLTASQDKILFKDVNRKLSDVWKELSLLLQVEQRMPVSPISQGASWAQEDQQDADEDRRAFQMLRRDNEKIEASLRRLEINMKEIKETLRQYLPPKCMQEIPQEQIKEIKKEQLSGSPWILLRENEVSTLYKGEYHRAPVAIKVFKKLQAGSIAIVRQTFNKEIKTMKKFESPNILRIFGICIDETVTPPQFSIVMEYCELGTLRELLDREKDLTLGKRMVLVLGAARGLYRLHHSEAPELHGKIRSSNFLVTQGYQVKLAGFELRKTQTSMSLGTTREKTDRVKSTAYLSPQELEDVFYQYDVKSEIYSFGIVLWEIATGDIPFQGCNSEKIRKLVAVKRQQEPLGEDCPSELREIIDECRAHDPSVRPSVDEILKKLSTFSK

Kd [1, 5]	Kd [1, 6]	Kd [3]	Kd [4]	SMILES	IC50 ([2]; Table 27)	IC50 ([2]; Table 24)
< 10 nM				C[C@H](Oc1cc(-c2nn(C)c3c(-c4cnn(C5CCN(C(=O)c6cccc(C(=O)NC7CCC(=O)NC7=O)c6)CC5)c4)cnc(N)c23)ccc1NS(=O)(=O)C(F)F)c1ccc(F)cc1 (stereo partly drawn) [Compound 1084, 3-[4-(4-{4-amino-3-[4-(difluoromethanesulfonamido)-3-[(1S)-1-(4-fluorophenyl)ethoxy]phenyl]-1-methyl-1H-pyrazolo [4,3-c]pyridin-7-yl}-1H-pyrazol-1-yl)piperidine-1-carbonyl]-N-(2,6-dioxopiperidin-3-yl)benzamide]	1000 to 10000 nM	
< 10 nM				C[C@H](Oc1cc(-c2nn(C)c3c(-c4cnn(C5CCN(C(=O)c6ccc(C(=O)NC7CCC(=O)NC7=O)cc6)CC5)c4)cnc(N)c23)ccc1NS(=O)(=O)C(F)F)c1ccc(F)cc1 (stereo partly drawn) [Compound 1086, 4-[4-(4-{4-amino-3-[4-(difluoromethanesulfonamido)-3-[(1S)-1-(4-fluorophenyl)ethoxy]phenyl]-1-methyl-1H-pyrazolo[4,3-c]pyridin-7-yl}-1H-pyrazol-1-yl)piperidine-1-carbonyl]-N-(2,6-dioxopiperidin-3-yl)benzamide]	1000 to 10000 nM	
				[2H]C([2H])([2H])N1CCC(n2cc(-c3cnc(N)c4c(-c5ccc(NS(=O)(=O)C(F)F)c(O[C@@H](C)c6ccc(F)cc6)c5)nn(C)c34)cn2)CC1(C)C (stereo partly drawn) [Compound 152, N-(4-(4-amino-7-(1-(2,2-dimethyl-1-(methyl-d3)piperidin-4-yl)-1H-pyrazol-4-yl)-1-methyl-1H-pyrazolo[4,3-c]pyridin-3-yl)-2-((S)-1-(4-fluorophenyl)ethoxy)phenyl)-1,1-difluoromethanesulfonamide]		< 1000 nM
< 10 nM				Cc1ncsc1-c1ccc(CNC(=O)[C@@H]2C[C@@H](O)CN2C(=O)[C@@H](NC(=O)CCCCCCCn2cc(-c3cnc(N)c4c(-c5ccc(NS(=O)(=O)C(F)F)c(O[C@@H](C)c6ccc(F)cc6)c5)nn(C)c34)cn2)C(C)(C)C)cc1 [Compound 1067, (2S,4R)-1-[(2S)-2-[8-(4-{4-amino-3-[4-(difluoromethanesulfonamido)-3-[(1S)-1-(4-fluorophenyl)ethoxy]phenyl]-1-methyl-1H-pyrazolo[4,3-c]pyridin-7-yl}-1H-pyrazol-1-yl)octanamido]-3,3-dimethylbutanoyl]-4-hydroxy-N-{[4-(4-methyl-1,3-thiazol-5-yl)phenyl]methyl}pyrrolidine-2-carboxamide]	< 1000 nM	
10 to 1000 nM				Cc1ncsc1-c1ccc(CNC(=O)[C@@H]2C[C@@H](O)CN2C(=O)[C@@H](NC(=O)CCCCC#Cc2cnc(N)c3c(-c4ccc(NS(=O)(=O)C(F)F)c(O[C@@H](C)c5ccc(F)cc5)c4)nn(C)c23)C(C)(C)C)cc1 [Compound 1026, (2S,4R)-1-[(2S)-2-(7-{4-amino-3-[4-(difluoromethanesulfonamido)-3-[(1S)-1-(4-fluorophenyl)ethoxy]phenyl]-1-methyl-1H-pyrazolo[4,3-c]pyridin-7-yl}hept-6-ynamido)-3,3-dimethylbutanoyl]-4-hydroxy-N-{[4-(4-methyl-1,3-thiazol-5-yl)phenyl]methyl}pyrrolidine-2-carboxamide]	1000 to 10000 nM	
< 10 nM				C[C@H](Oc1cc(-c2nn(C)c3c(-c4cnn(C5CCN(C(=O)CC6CN(c7cccc8c7C(=O)N(C7CCC(=O)NC7=O)C8=O)C6)CC5)c4)cnc(N)c23)ccc1NS(=O)(=O)C(F)F)c1ccc(F)cc1 (stereo partly drawn) [Compound 1112, N-[4-(4-amino-7-{1-[1-(2-{1-[2-(2,6-dioxopiperidin-3-yl)-1,3-dioxo-2,3-dihydro-1H-isoindol-4-yl]azetidin-3-yl}acetyl)piperidin-4-yl]-1H-pyrazol-4-yl}-1-methyl-1H-pyrazolo[4,3-c]pyridin-3-yl)-2-[(1S)-1-(4-fluorophenyl)ethoxy]phenyl]-1,1-difluoromethanesulfonamide]	1000 to 10000 nM	
				C[C@H](Oc1cc(-c2nn(C)c3c(-c4cnn(C5CCNC(C(F)(F)F)C5)c4)cnc(N)c23)ccc1NS(=O)(=O)C(F)F)c1ccc(F)cc1 (stereo partly drawn) [Compound 149, N-(4-(4-amino-1-methyl-7-(1-(2-(trifluorometh-yl)piperidin-4-yl)-1H-pyrazol-4-yl)-1H-pyrazolo[4,3-c]pyridin-3-yl)-2-((S)-1-(4-fluoro-phenyl)ethoxy)phenyl)-1,1-difluoro-methanesulfonamide]		< 1000 nM
	< 1 nM	> 10000 nM	> 10000 nM	CC#Cc1cnc(N)c2c(-c3ccc(NS(=O)(=O)C(F)F)c(O[C@@H](C)c4ccc(F)cc4)c3)nn(C)c12 [Compound 56, (S)-N-(4-(4-amino-1-methyl-7-(prop-1-yn-1-yl)-1H-pyrazolo[4,3-c]pyridin-3-yl)-2-(1-(4-fluorophenyl)ethoxy)phenyl)-1,1-difluoromethane-sulfonamide]		
	< 1 nM	> 10000 nM	> 10000 nM	Cn1nc(-c2ccc(NS(=O)(=O)C(F)F)c(OCc3cccc(Cl)c3)c2)c2c(N)ncc(-c3cnn(C4CCOCC4)c3)c21 [Compound 130, N-(4-(4-amino-1-methyl-7-(1-(tetrahydro-2H-pyran-4-yl)-1H-pyrazol-4-yl)-1H-pyrazolo[4,3-c]pyridin-3-yl)-2-((3-chlorobenzyl)oxy)phenyl)-1,1-difluoromethane-sulfonamide]		
	< 1 nM	> 10000 nM	> 10000 nM	C[C@H](Oc1cc(-c2cnn3c(-c4cnn(CCO)c4)cnc(N)c23)ccc1NS(=O)(=O)C(F)F)c1ccc(F)cc1 [Compound 37, (S)-N-(4-(4-amino-7-(1-(2-hydroxyethyl)-1H-pyrazol-4-yl)pyrazolo[1,5-a]pyrazin-3-yl)-2-(1-(4-fluorophenyl)ethoxy)phenyl)-1,1-difluoromethane-sulfonamide]		
	< 1 nM	> 10000 nM	> 10000 nM	Cc1ccc(-c2cnc(N)c3c(-c4ccc(NS(=O)(=O)C(F)F)c(O[C@@H](C)c5ccc(F)cc5)c4)nn(C)c23)cn1 [Compound 26, (S)-N-(4-(4-amino-1-methyl-7-(6-methylpyridin-3-yl)-1H-pyrazolo[4,3-c]pyridin-3-yl)-2-(1-(4-fluorophenyl)ethoxy)phenyl)-1,1-difluoromethanesulfonamide]		
	< 1 nM	> 10000 nM	> 10000 nM	C[C@H](Oc1cc(-c2nn(C)c3c(-c4cnn(C5CCN(C)C(C)(C)C5)c4)cnc(N)c23)ccc1NS(=O)(=O)C(F)F)c1ccc(Cl)cc1 (stereo partly drawn) [Compound 159, N-(4-(4-amino-1-methyl-7-(1-(1,2,2-trimethylpiperidin-4-yl)-1H-pyrazol-4-yl)-1H-pyrazolo[4,3-c]pyridin-3-yl)-2-((S)-1-(4-chloro-phenyl)ethoxy)phenyl)-1,1-difluoro-methanesulfonamide]		
	< 1 nM	> 10000 nM	> 10000 nM	Cn1nc(-c2ccc(NS(=O)(=O)C(F)F)c(OCc3ccc(Cl)c(F)c3)c2)c2c(N)ncc(-c3cnn(C4CCOCC4)c3)c21 [Compound 132, N-(4-(4-amino-1-methyl-7-(1-(tetrahydro-2H-pyran-4-yl)-1H-pyrazol-4-yl)-1H-pyrazolo[4,3-c]pyridin-3-yl)-2-((4-chloro-3-fluoro-benzyl)oxy)phenyl)-1,1-difluoromethane-sulfonamide]		
